pIC50, pKd: −log10 of the molar value. Calls of active or inactive are those of the source. No cut-off for these calls is given here.
Experiments:
Homo sapiens = organism: Homo sapiens; assay: (§1) Displacement of 2OG from FIH (unknown origin) expressed in Escherichia coli at 400 uM
Egl nine homolog 1 [1] = molecular target: T1, Egl nine homolog 1 (Homo sapiens, UniProt Q9GZT9); assay: Inhibition of PHD2 (unknown origin)
Target sequence in this assay (Q9GZT9 whole entry): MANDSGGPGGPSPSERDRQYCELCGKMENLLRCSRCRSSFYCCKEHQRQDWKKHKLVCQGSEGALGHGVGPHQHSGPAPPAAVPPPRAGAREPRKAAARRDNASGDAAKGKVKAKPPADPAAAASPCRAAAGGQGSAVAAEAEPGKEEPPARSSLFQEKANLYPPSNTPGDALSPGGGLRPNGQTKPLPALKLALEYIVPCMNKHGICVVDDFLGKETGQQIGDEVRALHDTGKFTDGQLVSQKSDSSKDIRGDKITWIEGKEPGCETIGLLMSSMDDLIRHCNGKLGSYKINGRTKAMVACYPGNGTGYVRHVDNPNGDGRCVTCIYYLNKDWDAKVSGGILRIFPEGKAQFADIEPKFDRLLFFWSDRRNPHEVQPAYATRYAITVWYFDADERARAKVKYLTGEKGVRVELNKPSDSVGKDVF

[2] = as §1; conditions: Homo sapiens
[3] = Binding affinity to human FIH catalytic domain Mn2 expressed in Escherichia coli by NMR spectroscopic analysis
[4] = Inhibition of human FIH catalytic domain Mn2 expressed in Escherichia coli by NMR spectroscopic analysis
[5] = molecular target: T2, Lysine-specific demethylase 2A (Homo sapiens) (UniProt Q9Y2K7); assay: Displacement of 2OG from FBXL11 (1 to 517) (unknown origin) expressed in Escherichia coli at 800 uM
T2 sequence (whole entry): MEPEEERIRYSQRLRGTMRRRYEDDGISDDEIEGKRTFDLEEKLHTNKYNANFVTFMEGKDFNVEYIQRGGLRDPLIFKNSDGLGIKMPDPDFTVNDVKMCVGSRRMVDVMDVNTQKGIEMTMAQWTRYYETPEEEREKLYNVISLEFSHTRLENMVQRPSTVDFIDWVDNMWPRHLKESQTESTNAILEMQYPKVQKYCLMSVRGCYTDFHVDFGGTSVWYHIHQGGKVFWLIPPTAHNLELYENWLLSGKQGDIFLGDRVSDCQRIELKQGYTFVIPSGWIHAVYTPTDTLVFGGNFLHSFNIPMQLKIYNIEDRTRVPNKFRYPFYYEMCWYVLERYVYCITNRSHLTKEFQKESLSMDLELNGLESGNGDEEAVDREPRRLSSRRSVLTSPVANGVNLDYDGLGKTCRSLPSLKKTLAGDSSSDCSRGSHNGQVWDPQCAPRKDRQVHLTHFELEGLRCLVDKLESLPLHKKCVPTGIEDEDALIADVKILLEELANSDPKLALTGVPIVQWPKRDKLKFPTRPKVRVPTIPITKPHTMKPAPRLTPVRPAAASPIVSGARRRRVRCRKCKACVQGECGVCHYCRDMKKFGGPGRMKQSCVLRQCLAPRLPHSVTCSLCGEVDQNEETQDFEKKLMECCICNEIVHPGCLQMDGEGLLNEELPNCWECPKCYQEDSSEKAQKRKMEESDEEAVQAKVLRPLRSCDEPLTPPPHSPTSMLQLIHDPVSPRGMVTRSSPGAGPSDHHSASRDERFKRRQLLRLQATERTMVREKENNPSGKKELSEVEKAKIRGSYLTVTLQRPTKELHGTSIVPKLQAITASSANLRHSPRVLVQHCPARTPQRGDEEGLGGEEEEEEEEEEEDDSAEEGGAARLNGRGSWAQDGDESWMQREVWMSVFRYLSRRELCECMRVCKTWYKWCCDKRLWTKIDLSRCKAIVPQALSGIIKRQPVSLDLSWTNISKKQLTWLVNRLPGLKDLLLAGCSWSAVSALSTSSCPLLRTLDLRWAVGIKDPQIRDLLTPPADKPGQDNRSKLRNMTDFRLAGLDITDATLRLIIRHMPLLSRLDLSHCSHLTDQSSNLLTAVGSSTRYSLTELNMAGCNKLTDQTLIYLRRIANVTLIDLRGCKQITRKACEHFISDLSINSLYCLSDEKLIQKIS

Egl nine homolog 1 [6] = molecular target: T1, Egl nine homolog 1; assay: Binding affinity to human PHD2 catalytic domain (181 to 426) Mn2 expressed in Escherichia coli by NMR spectroscopic analysis
Target sequence in this assay (Q9GZT9 whole entry): as the sequence (Q9GZT9 whole entry) above

Egl nine homolog 1 [7] = molecular target: T1, Egl nine homolog 1; assay: Inhibition of human PHD2 catalytic domain (181 to 426) Mn2 expressed in Escherichia coli by NMR spectroscopic analysis
Target sequence in this assay (Q9GZT9 whole entry): as the sequence (Q9GZT9 whole entry) above

Egl nine homolog 1 [8] = molecular target: T1, Egl nine homolog 1; assay: Displacement of 2OG from catalytic domain of PHD2 (181 to 426) (unknown origin) Zn2 expressed in Escherichia coli at 150 uM
Target sequence in this assay (Q9GZT9 2-426 limits assumed): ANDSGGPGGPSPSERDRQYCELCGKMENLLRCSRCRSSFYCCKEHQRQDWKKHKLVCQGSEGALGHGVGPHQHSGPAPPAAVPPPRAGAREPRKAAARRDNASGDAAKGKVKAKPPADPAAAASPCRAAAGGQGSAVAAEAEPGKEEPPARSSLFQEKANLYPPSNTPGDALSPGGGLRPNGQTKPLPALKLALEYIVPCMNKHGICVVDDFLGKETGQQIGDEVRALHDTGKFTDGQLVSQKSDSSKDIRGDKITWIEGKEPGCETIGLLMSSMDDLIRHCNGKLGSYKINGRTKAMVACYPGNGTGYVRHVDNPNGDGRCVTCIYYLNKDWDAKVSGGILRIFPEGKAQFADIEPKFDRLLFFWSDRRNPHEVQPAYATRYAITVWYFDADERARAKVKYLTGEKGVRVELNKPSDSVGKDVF

Egl nine homolog 1 [9] = molecular target: T1, Egl nine homolog 1; assay: Displacement of [13C]-2OG from catalytic domain of PHD2 (181 to 426) (unknown origin) expressed in Escherichia coli
Target sequence in this assay (Q9GZT9 whole entry): as the sequence (Q9GZT9 whole entry) above

Egl nine homolog 1 [10] = molecular target: T1, Egl nine homolog 1; assay: Displacement of 2OG from catalytic domain of PHD2 (181 to 426) (unknown origin) Zn2 expressed in Escherichia coli at 400 uM
Target sequence in this assay (Q9GZT9 2-426 limits assumed): as the sequence (Q9GZT9 2-426 limits assumed) above

Q: For `O=C(O)CC(C(=O)O)C(O)C(=O)O` (stereo unspecified) [ISOCITRATE], which inhibition (Homo sapiens) is on record?
A: The inhibition was “inactive”.

Q: And the pIC50 (Egl nine homolog 1 [1])?
A: Its pIC50 is less than 2.00.

Q: With `O=C(O)c1ccc(O)c2ncccc12` as the molecule, how does the inhibition [2] read?
A: The inhibition was 75%.

Q: What about the pKd [3] of the same molecule?
A: The pKd was 4.52.

Q: And the pIC50 [4]?
A: The pIC50 was 4.70.

Q: What about the inhibition [5] of the same molecule?
A: Its inhibition is 65%.

Q: For `O=C(O)CCC(=O)O`, which inhibition (Homo sapiens) is on record?
A: The inhibition was “inactive”.

Q: With `O=C(O)/C=C/C(=O)O` [FUMARIC ACID] as the molecule, how does the pKd (Egl nine homolog 1 [6]) read?
A: The pKd was 3.70.

Q: And the pIC50 (Egl nine homolog 1 [7])?
A: Its pIC50 is 3.66.

Q: For `O=C(c1ccccc1)c1ccc(O)c(O)c1`, which inhibition (Egl nine homolog 1 [8]) is on record?
A: Its inhibition is “inactive”.

Q: With `O=C(O)c1ccc(O)c(O)c1` as the molecule, how does the inhibition (Egl nine homolog 1 [8]) read?
A: The inhibition was “inactive”.

Q: With `O=C(O)c1ccnc(C(=O)O)c1` as the molecule, how does the inhibition [5] read?
A: Its inhibition is 70%.

Q: With `Oc1ccccc1O` as the molecule, how does the inhibition (Egl nine homolog 1 [8]) read?
A: The inhibition was “inactive”.

Q: With `O=C(O)CC(O)C(=O)O` (stereo unspecified) as the molecule, how does the inhibition (Homo sapiens) read?
A: Its inhibition is “inactive”.

Q: Which inhibition [2] does the source give for `O=C(O)CNC(=O)c1nc(Cl)c2ccccc2c1O` here?
A: Its inhibition is 55%.

Q: What about the pKd [3] of the same molecule?
A: The pKd was 3.85.

Q: What about the pIC50 [4] of the same molecule?
A: The pIC50 was less than 4.60.

Q: What about the inhibition [5] of the same molecule?
A: Its inhibition is “inactive”.

Q: With `O=C(O)Cc1cs/c(=N\C(=O)CS(=O)(=O)Cc2ccc3ccccc3c2)n1O` as the molecule, how does the pKd (Egl nine homolog 1 [9]) read?
A: The pKd was 6.96.

Q: And the pKd (Egl nine homolog 1 [6])?
A: The pKd was 7.00.

Q: What about the pIC50 (Egl nine homolog 1 [7]) of the same molecule?
A: Its pIC50 is 7.70.

Q: What about the inhibition [5] of the same molecule?
A: Its inhibition is 90%.

Q: Which inhibition (Egl nine homolog 1 [10]) does the source give for `O=C(O)CNC(=O)c1ccc(B(O)O)cn1` here?
A: Its inhibition is 50%.

Q: For `CC(O)C(C)O` (stereo unspecified), which inhibition (Egl nine homolog 1 [8]) is on record?
A: The inhibition was “inactive”.

Q: With `O=C(O)/C=C/c1ccc(O)c(O)c1` as the molecule, how does the inhibition (Egl nine homolog 1 [8]) read?
A: The inhibition was “inactive”.

Q: With `O=C(O)CC(O)(CC(=O)O)C(=O)O` as the molecule, how does the inhibition (Homo sapiens) read?
A: The inhibition was “inactive”.

Q: For `CCOC(=O)c1ccc(O)c(O)c1`, which inhibition (Egl nine homolog 1 [8]) is on record?
A: The inhibition was “inactive”.

Q: Which inhibition [2] does the source give for `O=C(O)CNC(=O)C(=O)O` [N-OXALYLGLYCINE] here?
A: Its inhibition is 85%.

Q: What about the pKd [3] of the same molecule?
A: Its pKd is 5.40.

Q: What about the pIC50 [4] of the same molecule?
A: The pIC50 was 4.30.

Q: What about the inhibition [5] of the same molecule?
A: Its inhibition is 30%.

— ChEMBL document CHEMBL2311536 (J Med Chem, 2013)
